Data published in paper PMC6662822, “Rational drug-design approach supported with thermodynamic studies — a peptide leader for the efficient bi-substrate inhibitor of protein kinase CK2” (Scientific Reports, 2019).
Where a SMILES comes first, the peptide text is derived from it. Where no end group is shown, it is not given here. The star is where a group is joined. X1 = O=C(c1c(Br)c(Br)c(Br)c2nn[nH]c12)*

Assays:
hCK2α [1] = molecular target: T1, hCK2α (Homo sapiens, UniProt P68400); experiment: ADP-Glo kinase assay, inhibitory activity towards human CK2α; assay type: biochemical
T1 construct: His-tag; made in house
T1 sequence (P68400 whole entry): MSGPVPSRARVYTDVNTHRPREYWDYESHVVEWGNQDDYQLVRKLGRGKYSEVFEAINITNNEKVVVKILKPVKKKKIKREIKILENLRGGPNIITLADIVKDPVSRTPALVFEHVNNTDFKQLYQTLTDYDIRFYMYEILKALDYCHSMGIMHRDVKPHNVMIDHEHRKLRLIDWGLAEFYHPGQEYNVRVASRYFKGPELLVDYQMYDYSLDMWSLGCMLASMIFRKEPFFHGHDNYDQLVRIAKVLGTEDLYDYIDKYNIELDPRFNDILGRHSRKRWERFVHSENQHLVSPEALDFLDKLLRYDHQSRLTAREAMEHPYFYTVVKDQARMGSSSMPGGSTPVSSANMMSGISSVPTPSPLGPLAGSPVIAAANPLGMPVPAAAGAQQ
Method: The ADP-Glo kinase assay (Promega) was used to measure the inhibition effect of the tested compounds. The kinase assay was carried in 96-well plate in volume of 25 μl in 20 mM Tris–HCl (pH 7.5) buffer, containing 100 ng hCK2α (1 μl), 10 μM CK2 substrate peptide […] (Biaffin GmbH & Co KG), 10 μM ATP, 20 mM MgCl2 and 2.5 μl of serially diluted ligand in DMSO. The reaction was initiated with enzyme in and kept going for 20 min at 30 °C. Reaction was stopped by adding 25 μl of ADP-Glo reagent. After incubation at room temperature for 40 min (to consume the remaining […]) 50 μl of kinase detection reagent were added and incubated for additional 30 minutes to produce luminescence signal. Luminescence was measured with The SpectraMax iD3 Multi-Mode Microplate Reader (Molecular Devices).

hCK2α [2] = molecular target: T1, hCK2α; experiment: Relaxation-filtered 1H NMR (transverse relaxation) of peptides in the presence of hCK2α; assay type: binding; conditions: for R2,f, relaxation rate in the presence of hCK2α: 25 μM hCK2α, 2.5 mM peptide (100-fold excess), 25 mM Tris-HCl pH 7, 0.25 M NaCl, 10% D2O, global two-exponential fit, higher = stronger binding; for R2,f, relaxation rate in the presence of hCK2α / R2,s, relaxation rate for the free peptide: 25 °C; for Relative binding to hCK2α, in words: relaxation-filtered NMR, compared with the other tested peptides; for R2,s, relaxation rate for the free peptide: same samples, slower component of the global two-exponential fit
Method: NMR samples containing tested peptides and hCk2α were prepared in 25 mM Tris–HCl (pH 7, 0.25 M NaCl) buffer with 10% D2O. The protein concentration was 25 μM, and a 100-fold peptide excess (2.5 mM) was used throughout the studies.
The scoring of the peptides’ binding affinities towards hCK2α was done according to the results of ^1H transverse (T2) relaxation filtering experiment. All spectra were recorded at 25 °C on Bruker Avance 500 NMR spectrometer (11.7 T) using 18 delays (0, 1, 2, 3, 4, 5, 10, 15, 20, 25, 30, 35, 40, 45, 50, 100, 150 and 200 ms). The spectra of 7500 Hz spectral width, 16k data points each, were collected using 16 scans with 2.0 s recycling delay preceded by 8 dummy scans.
NMR data were further processed and analyzed with the SpinWorks software (version 4.2.8.0), using cosine-squared window function and Gaussian filter resulting in 0.3 Hz broadening with no solvent filter applied prior to Fourier transformation. We analyzed ^1H transverse relaxation rates of selected nuclei representative for each type of amino acid residues present in the tested peptides, i.e Hγ of Glu (2.3ppm), Hβ of Asp (2.8ppm), Hβ of Ser (3.8ppm), Hγ(CH3) of Thr (1.1 ppm) and Hε of Lys (2.9ppm), respectively. Additionally, the resonance signals of amide protons (8.2–8.9ppm) were also analyzed. We performed the relaxation-filtered experiment, with the relaxation delay varying in the range of 1 to 200 ms. Variation in the intensity of particular resonance signals were analyzed using the model of two-exponential decay (1):1 y=A1⋅exp(t∗R2,f)+A2⋅exp(t∗R2,s)+y0 where R2,s and R2,f are the transverse relaxation rates of the free and the fraction of the virtually bound peptide, respectively. For each peptide the global optimization procedure was applied for all identified resonance signals.

O=C(O)c1c(Br)c(Br)c(Br)c2nn[nH]c12 [7-COOH-Br3Bt] gave an IC50 (hCK2α [1]; ADP-Glo, 100 ng hCK2α, 10 μM RRRDDDSDDD, 10 μM ATP, 20 mM MgCl2, pH 7.5, 20 min 30 °C, global fit of three independent experiments) of 8 ± 6.3 µM.

NC(=O)[C@H](CCC(=O)O)NC(=O)[C@H](CCC(=O)O)NC(=O)[C@H](CCC(=O)O)NC(=O)[C@H](CO)NC(=O)[C@H](CCC(=O)O)NC(=O)[C@@H](N)CCCCNC(=O)c1c(Br)c(Br)c(Br)c2nn[nH]c12 [bi-substrate inhibitor] (H-K(X1)ESEEE-NH2) was tested, and the “Enhancement of inhibitory activity versus low-mass precursor 7-COOH-Br3Bt” value (hCK2α [1]; ratio of IC50 values) was “over 10 fold”.

In the case of DDTDDD-NH2, the “R2,f, relaxation rate in the presence of hCK2α” value (“R2,f, relaxation rate” for short) (hCK2α [2]) is reported as 7.1 ± 0.8 s⁻¹ and the “Relative binding to hCK2α, in words” value (hCK2α [2]) is reported as “binds visibly weaker”.

With “DESEEE-NH2 [peptide named only in b23, possibly a misprint of DETEEE-NH2]” the “Relative binding to hCK2α, in words” value (hCK2α [2]) was “lower affinity”.

For DETEEE-NH2, the “R2,f, relaxation rate” value (hCK2α [2]) was 10.4 ± 1.6 s⁻¹ and the “R2,s, relaxation rate for the free peptide” value (hCK2α [2]) was 2.2 ± 0.6 s⁻¹.

For EDTEEE-NH2, the “R2,f, relaxation rate” value (hCK2α [2]) was 14.9 ± 2.5 s⁻¹ and the “R2,s, relaxation rate for the free peptide” value (hCK2α [2]) was 1.5 ± 0.7 s⁻¹.

With EETDEE-NH2 the “R2,f, relaxation rate” value (hCK2α [2]) was 15.4 ± 2.1 s⁻¹ and the “R2,s, relaxation rate for the free peptide” value (hCK2α [2]) was 2.3 ± 0.5 s⁻¹.

For EETEDE-NH2, the “R2,f, relaxation rate” value (hCK2α [2]) was 17.2 ± 4.8 s⁻¹ and the “R2,s, relaxation rate for the free peptide” value (hCK2α [2]) was 3.7 ± 0.5 s⁻¹.

With EETEED-NH2 the “R2,f, relaxation rate” value (hCK2α [2]) was 16.1 ± 2.3 s⁻¹ and the “R2,s, relaxation rate for the free peptide” value (hCK2α [2]) was 2.2 ± 0.5 s⁻¹.
